Assay results reported in ChEMBL document CHEMBL1123032, “Antiparasitic agents. 6. Synthesis and anthelmintic activities of novel isothiocyanatophenyl-1,2,4-oxadiazoles” (1985).

Key:
Assay type in all cases: functional
[1] = Anthelmintic activity against Nematospiroides dubius when the dose was administered orally in mouse.; parameters: concentration or dose not given beside the values
[2] = system: Rodentolepis nana; assay: Evaluation for antihelminthic activity against Hymenolepis nana when the dose was administered orally in mouse.
[3] = species: Mus musculus; assay: Compound was evaluated for antihelminthic activity in the diet against Nematospiroides dubius in mice at a concentration 0.013%
[4] = species: Mus musculus; assay: Compound was evaluated for antihelminthic activity in the diet against Nematospiroides dubius in mice at concentration 0.2%
[5] = species: Mus musculus; assay: Compound was evaluated for antihelminthic activity in the diet against Nematospiroides dubius in mice at a concentration 0.1%
[6] = species: Mus musculus; assay: Compound was evaluated for antihelminthic activity in the diet against Nematospiroides dubius in mice at a concentration 0.025%
[7] = species: Mus musculus; assay: Compound was evaluated for antihelminthic activity in the diet against Nematospiroides dubius in mice at a concentration 0.05%
[8] = system: Mus musculus; assay: Compound was evaluated for antihelminthic activity against Hymenolepis nana when the dose was administered subcutaneously in mouse
[9] = system: Mus musculus; assay: Compound was evaluated for antihelminthic activity against Hymenolepis nana when the dose was administered orally in mouse after destrobilization

SMILES	Activity [1]	Activity [2]	also measured
[O-][n+]1ccc(-c2ncon2)cc1	0%	0%	
Nc1ccc(-c2ncon2)cc1	0%	0%	
S=C=Nc1ccc(-c2noc(C3CCCCC3)n2)cc1	0%	25%	
Fc1ccc(-c2noc(-c3ccc(N=C=S)cc3)n2)cc1	0%	0%	
COCCc1nc(-c2ccc(N=C=S)cc2)no1	0%	0%	
S=C=Nc1cc(-c2nc(-c3ccco3)no2)ccc1Cl	0%	100%	
COC(=O)Nc1cc(-c2nc(-c3ccco3)no2)ccc1Cl	0%	0%	
O=[N+]([O-])CCc1nc(-c2ccccc2)no1	0%	0%	
Nc1ccc(-c2nc(-c3ccco3)no2)c(Cl)c1	0%	0%	
CCCCCCCCCCCc1nc(N)no1			Activity [3]: 8%; Activity [4]: 93%; Activity [5]: 70%; Activity [6]: 35%; Activity [7]: 46%
Nc1ccc(-c2nc(-c3ccc(Cl)cc3)no2)cc1	0%	0%	
c1ccc(-c2nc(CCn3cnc4ccccc43)no2)cc1	0%	0%	
S=C=Nc1ccc(-c2noc(-c3ccccn3)n2)cc1	0%	0%	
S=C=Nc1ccc(-c2noc(C34CC5CC(CC(C5)C3)C4)n2)cc1	0%	0%	
c1ccc(-c2nc(CCn3c(-c4cscn4)nc4ccccc43)no2)cc1	17%	0%	
S=C=Nc1ccc(-c2noc(C3CC3)n2)cc1	0%	0%	
S=C=Nc1ccc(-c2nc(-c3cccs3)no2)cc1	22%	33%	
O=[N+]([O-])c1ccc2ncn(CCc3noc(-c4ccccc4)n3)c2c1	0%	0%	
O=C(Nc1ccc(-c2ncon2)cc1)Oc1ccccc1	0%	0%	
COc1cc(-c2nc(-c3ccc(N=C=S)cc3)no2)cc(OC)c1OC	0%	0%	

SMILES	Activity [1]	Activity [2]	also measured
S=C=Nc1ccc(-c2noc(CCl)n2)cc1	38%	0%	
S=C=Nc1ccc(-c2nc(-c3ccccn3)no2)cc1	0%	0%	
Nc1cc(-c2nc(-c3ccco3)no2)ccc1Cl	0%	0%	
C(=N/c1ccc(-c2ncon2)cc1)/c1ccc[nH]1	0%	0%	
S=C=Nc1ccc(-c2noc(-c3cccs3)n2)cc1	57%	25%	
Nc1ccc(-c2nc(-c3ccc(F)cc3)no2)cc1	18%	0%	
Clc1ccc(/C=N/c2ccc(-c3ncon3)cc2)cc1	0%	0%	
S=C=Nc1cccc(-c2ncon2)c1	0%	0%	
S=C=Nc1cc(-c2ncon2)ccc1Cl	0%	0%	
O=C(Nc1cc(-c2nc(-c3ccco3)no2)ccc1Cl)Oc1ccccc1	0%	0%	
CCc1nc(-c2ccc(N=C=S)cc2)no1	30%	0%	
CCOC(=O)Cc1nc(-c2ccc(N=C=S)cc2)no1	0%	0%	
CC(=O)Oc1ccccc1-c1nc(-c2ccc(N=C=S)cc2)no1	0%	0%	
Fc1ccc(-c2nc(-c3ccc(N=C=S)cc3)no2)cc1	42%	0%	
O=C(Nc1ccc(-c2nc(-c3ccco3)no2)c(Cl)c1)OCC(Cl)(Cl)Cl	0%	0%	
Clc1ccc(-c2ncon2)cc1			Activity [3]: 36%; Activity [5]: 100%; Activity [6]: 61%; Activity [7]: 95%
S=C=Nc1ccc(-c2ncon2)cc1	100%		Activity [8]: 100%; Activity [3]: 48%; Activity [4]: 100%; Activity [5]: 100%; Activity [9]: 0%; Activity [6]: 82%; Activity [7]: 96%
CCN(CC)/C(S)=N\c1cc(-c2nc(-c3ccco3)no2)ccc1Cl	0%	0%	
CCN(CC)/C(S)=N\c1ccc(-c2nc(-c3ccco3)no2)c(Cl)c1	0%	0%	
S=C=Nc1cccc(-c2noc(-c3ccco3)n2)c1	0%	50%	

SMILES	Activity [1]	Activity [2]	also measured
S=C=Nc1ccc(-c2noc(-c3ccc(Cl)cc3)n2)cc1	0%	0%	
CN1CCN(Cc2nc(-c3ccc(N=C=S)cc3)no2)CC1	0%	0%	
S=C=Nc1ccc(-c2nc(-c3ccco3)no2)c(Cl)c1	0%	100%	
S=C=Nc1ccc(-c2nc(-c3ccco3)no2)cc1	90%	100%	
S=C=Nc1cc(-c2nc(-c3ccco3)no2)ccc1Sc1ccccc1	0%	0%	
C(=C\c1cccs1)/c1noc(/C=C/c2cccs2)n1	0%	0%	
O=C(Nc1cc(-c2nc(-c3ccco3)no2)ccc1Cl)OCC(Cl)(Cl)Cl	0%	0%	
S=C=Nc1ccc(-c2noc(CCc3ccccc3)n2)cc1	0%	0%	
CCOC(=O)c1nc(-c2ccc(N=C=S)cc2)no1	0%	0%	
O=C(Nc1ccc(-c2nc(-c3ccco3)no2)c(Cl)c1)Oc1ccccc1	0%	0%	
O=[N+]([O-])c1ccc(/C=N\c2ccc(-c3ncon3)cc2)o1	0%	0%	
CSc1nc(-c2ccccc2)no1			Activity [3]: 39%; Activity [4]: 98%; Activity [5]: 94%; Activity [6]: 67%; Activity [7]: 96%
S=C=Nc1ccc(-c2nc(-c3ccc(Cl)cc3)no2)cc1	0%	0%	
c1cc(-c2ncon2)ccn1	0%	0%	
COC(=O)Nc1ccc(-c2nc(-c3ccco3)no2)c(Cl)c1	0%	0%	
O=[N+]([O-])c1cc(/C=N/c2ccc(-c3ncon3)cc2)ccc1Cl	0%	0%	
S=C=Nc1ccc(-c2noc(-c3ccco3)n2)cc1	72%	0%	
c1ccc2[nH]c(-c3cscn3)nc2c1 [THIABENDAZOLE]			Activity [3]: 47%; Activity [4]: 100%; Activity [5]: 100%; Activity [6]: 81%; Activity [7]: 94%
